The text below walks through data of US20240261425A1, “CONJUGATE AND THE PREPARING METHOD AND USE THEREOF” (Nanjing University, priority 2021, published 2024).

Molecules are shown by their SMILES. Where only a bound is given, the exact number is not on record here.

Data set [1] in a line: Stability of linker-modified sfGFP in buffer comprising GSH (thiol exchange, mass spectrometry). The format is physicochemical. As to conditions: 37° C., different times. As to the method:
GSH (0.8 μL, 100 mM) and PBS (20 μL, pH=8.0, 50 mM) were added to a solution of GFP-Linker (20 μL, 40 μM, in PBS) at 37° C. for 48 h. (FIG. 20)
The stability of a sfGFP modified PhESF as a linker was verified, using the linker 5 and 4 with higher reactivity as controls. After sfGFP had been modified, it was added to the buffer comprising GSH, and was placed at 37° C. for different time, and a mass spectrometry was performed.

For the next data set, the system named is sfGFP-TEV. The data set is described as follows: Modification of sfGFP-TEV by derivatives of the reagent 1. As to conditions: 2 h. As to the method: When the benzene ring of the Reagent 1 was modified with different substituents (Michael acceptor 1-1 to 1-4), the difference of different substituents on the addition reaction (for example, the addition activity) was investigated (Table 5). Michael acceptor 1-1 to 1-4 were reacted with sfGFP-TEV.
MA 2 or MA 2 analogues (i.e. Compounds 1a, 1a-1, 1b, 1b-1) (1 μL, 20 mM in DMSO) and PBS (15 μL, pH=7.4, 50 mM) were added to a solution of GFP-TEV (4 μL, 250 μM in HEPES buffer). After incubation at 37° C. for 2 h, the solution was desalted to give the product before LC-MS analysis.

As for `O=S(=O)(F)/C=C/c1ccccc1` [Michael acceptor 1], in data set [1], the thiol exchange entry is “did not have a thiol exchange”. In addition, in the data set on sfGFP-TEV, the Addition number came out at 2 and the “Conv. (%)” value was over 99%.

Consider `CN1C(=O)C=CC1=O` [linker 5, reference compound], for which, in data set [1], the thiol exchange result is given as “obviously undergo thiol exchange”.
